The results in this text go back to paper PMC10198977, “Computational design of dynamic receptor—peptide signaling complexes applied to chemotaxis” (Nature Communications, 2023).

Test [1] concerns the target T1, Csedy (Homo sapiens, UniProt P61073). As to the kind of experiment: Gαi BRET of peptides on Csedy. The note with it: Csedy receptor; for log(EC50): Gi. The class given is cell-based. The procedure:
(§1) Lyophilized peptides were stored at −80 °C and resuspended in assay buffer on the day of the experiment.
(§2) 40,000 HEK 293T cells were transiently transfected with WT or variant HA3-CXCR4, Gαi1−91-Rluc8, Gβ3-WT, and Gγ9-GFP2 in pcDNA3.1(+) at a ratio of 10:1:10:5 respectively. Cells were first seeded in 100 µL DMEM 10% FBS in a poly-lysine coated, white-walled, white-bottom 96-well plate. Directly after cell loading, 50 µL of the mixture containing Lipofectamine 2000 and the DNA was added on top of the cells. The cells were then left to incubate at 37 °C, 5% CO2, and 95% relative humidity for 20 h, after which, 150 µL media was refreshed. Cells were assayed 48 h post-transfection. Cells were washed with 150 µL PBS, then 40 µL BRET buffer (HBSS, 0.2% Glucose) was added to each well. Coelenterazine 400a was first added at a final concentration of 2.5 µM and BRET ratios were measured once using Mithras[2] LB 943 plate reader. After the first measurement, 40 µL of a 3x concentrated agonist solution was added to each well, and BRET ratios were measured for another 30 min using a Mithras[2] LB 943 plate reader. Mock-transfected controls were subtracted from the data. Maximum values averaged from 3 replicates were then plotted against selected concentrations and fitted to a sigmoidal curve using GraphPad Prism v9.

Test [2] concerns the target T1, Csedy. Briefly: Calcium mobilization of peptides on Csedy. Type of test: cell-based. The note with it: Csedy receptor, Ca. The procedure: as §1
(§3) Calcium mobilization assays
(§4) 40,000 HEK 293T cells (gift from Prof. Ted Wensel at Baylor College of Medicine) were transiently transfected with 50 ng WT or variant HA3-CXCR4, 10 ng GNA15 in pcDNA3.1(+). To equalize receptor surface expression, 75 ng of HA3-CXCR4 was used for the Csel2 variant. Cells were first seeded in 100 µL DMEM (Gibco, ref: 41965-039) 10 % FBS in a black-walled, clear-bottom 96-well plate coated with poly-lysine (Sigma, ref: P6407-5MG). Directly after cell loading, 50 µL of the mixture containing 0.5 µL Lipofectamine 2000 (Invitrogen, ref: 11668-019) and the DNA was added on top of the cells. The cells were incubated at 37 °C, 5% CO2, and 95% relative humidity for 20 h, after which, media was refreshed with 150 µL DMEM + 10% FBS. Cells were assayed 48 h post-transfection. Cells were washed with 200 µL FLIPR6 buffer (HBSS + 20 mM HEPES, pH 7.4), then incubated at 37 °C, 5% CO2, and 95% relative humidity for 2 h in 200 µL dye buffer according to the manufacturer’s protocol (Molecular Devices, ref: R8190). Just before the assay, 5× concentrated peptide solutions were prepared in FLIPR6 buffer in a V-bottom 96-well plate. After incubation, peptide solutions were added at a rate of 16 µL/s after 30 s and fluorescence changes were monitored for 90 s after addition using microplate reader FlexStation3 (Molecular Devices). The maximum response after correction by the mock-transfected condition was averaged from three replicates. Values were then plotted against selected concentrations and fitted to a sigmoidal curve using GraphPad Prism v9.
In general terms: A change in cytosolic calcium serves as a functional read-out for many receptors and channels.

In test [3] the target is T2, WT CXCR4 (Homo sapiens, UniProt P61073). Briefly: Calcium mobilization of peptides on WT CXCR4. As to conditions: WT receptor, Ca. The class given is cell-based. The procedure: as §1, §3, §4
T2 sequence (P61073 whole entry): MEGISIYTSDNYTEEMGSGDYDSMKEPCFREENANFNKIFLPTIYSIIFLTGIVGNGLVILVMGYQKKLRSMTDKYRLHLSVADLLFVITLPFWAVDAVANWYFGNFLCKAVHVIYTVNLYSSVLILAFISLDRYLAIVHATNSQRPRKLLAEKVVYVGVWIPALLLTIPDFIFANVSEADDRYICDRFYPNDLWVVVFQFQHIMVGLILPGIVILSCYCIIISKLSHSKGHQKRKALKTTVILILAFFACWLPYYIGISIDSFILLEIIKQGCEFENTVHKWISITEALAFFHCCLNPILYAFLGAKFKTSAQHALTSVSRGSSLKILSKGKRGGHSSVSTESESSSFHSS
For test [4], the target named is T2, WT CXCR4. As to the kind of experiment: Gαi BRET of peptides on WT CXCR4. Type of test: cell-based. As to conditions: for Gi BRET (dEC50): vs WT:WT. The method, then: as §1, §2
In the next test the test system is Csel2. As to the kind of experiment: Gαi BRET of peptides on Csel2. The note with it: for Gi BRET (dEC50): vs WT:WT, Csel2 receptor. Type of test: cell-based. The procedure:
as §1, §2

Test [5] has as its target Csel2 designed CXCR4 receptor (UniProt P61073).
For test [6], the target named is WT CXCR4 with an N-terminal 3xHA-tag (UniProt P61073).
Test [7] concerns the target Cdyn designed CXCR4 receptor (UniProt P61073).
Test [8] addresses Csedy designed CXCR4 receptor (UniProt P61073).
For test [9], the target named is Csel2 designed CXCR4 receptor (UniProt P61073). This is another data set of the same source.
Test [10] concerns the target Cdyn designed CXCR4 receptor (UniProt P61073). This is another data set of the same source.
Test [11] concerns the target Csedy designed CXCR4 receptor (UniProt P61073). This is another data set of the same source.

As a reminder, the EC50 is the concentration that produces a half-maximal response.

Residues, ends and D or L forms follow the SMILES beside them. No end group written: not given here.

T1 sequence (P61073 whole entry): as above

For the molecule `CC(C)C[C@H](NC(=O)[C@H](CO)NC(=O)[C@H](Cc1ccc(O)cc1)NC(=O)[C@@H]1CCCN1C(=O)[C@@H](N)CCCCN)C(=O)N[C@@H](CO)C(=O)N[C@@H](CC(C)C)C(=O)N[C@@H](CCCNC(=N)N)C(=O)N[C@@H](CS)C(=O)N1CCC[C@H]1C(=O)N[C@@H](CS)C(=O)N[C@@H](CCCNC(=N)N)C(=O)N[C@@H](Cc1ccccc1)C(=O)N[C@@H](Cc1ccccc1)C(=O)N[C@@H](CCC(=O)O)C(=O)N[C@@H](CO)C(=O)N[C@@H](Cc1c[nH]cn1)C(N)=O` [V3Y-Y7L] (H-KPYSLSLRCPCRFFESH-NH2), at Csedy [1] (vs WT receptor–peptide pair), the increase in efficacy is greater than 34%. In addition, the “log(EC50)” value on Csedy [1] (replicate 1) is on record as -6.83; on Csedy [1] (replicate 2), -7.058; on Csedy [1] (replicate 3), -7.474; at Csedy [2] (replicate 1), -5.519; on Csedy [2] (replicate 2), -5.737; on Csedy [2] (replicate 3), -5.907. Also, at Csedy [2] (average (n=3)), the Efficacy was 102.027 % WT.

On to `CC(C)C[C@H](NC(=O)[C@H](CO)NC(=O)[C@@H](NC(=O)[C@@H]1CCCN1C(=O)[C@@H](N)CCCCN)C(C)C)C(=O)N[C@@H](CO)C(=O)N[C@@H](Cc1ccc(O)cc1)C(=O)N[C@@H](CCCNC(=N)N)C(=O)N[C@@H](CS)C(=O)N1CCC[C@H]1C(=O)N[C@@H](CS)C(=O)N[C@@H](CCCNC(=N)N)C(=O)N[C@@H](Cc1ccccc1)C(=O)N[C@@H](Cc1ccccc1)C(=O)N[C@@H](CCC(=O)O)C(=O)N[C@@H](CO)C(=O)N[C@@H](Cc1c[nH]cn1)C(N)=O` [WT, reference compound] (H-KPVSLSYRCPCRFFESH-NH2), for which the Efficacy at WT CXCR4 [3] (average (n=3)) amounted to 100 % WT; at WT CXCR4 [4] (WT receptor, Gi, average (n=3)), 100 % WT. The EC50 was 12.9 µM on WT CXCR4 [3] (replicate 1); 8.57 µM on WT CXCR4 [3] (replicate 2); 15.3 µM on WT CXCR4 [3] (replicate 3); 11.2 µM at WT CXCR4 [4] (WT receptor, Gi, replicate 1); 9.75 µM at WT CXCR4 [4] (WT receptor, Gi, replicate 2); 12 µM on WT CXCR4 [4] (WT receptor, Gi, replicate 3).

Consider “Y7L: CXCL12(1-17) peptide variant, Leu at P7 (KPVSLSLRCPCRFFESH-NH2; cysteine pairing not given here)”, for which, in the test on Csel2 (Csel2 receptor (Fig. 3a)), the Gαi efficacy increase turned out to be 30%. Further, the “Gi BRET (dEC50)” value in the test on Csel2 (replicate 1) is -0.2255; in the test on Csel2 (replicate 2), -0.0185; in the test on Csel2 (replicate 3), -0.357; in the test with WT CXCR4 [4] (WT receptor, replicate 1), 0.3425; with WT CXCR4 [4] (WT receptor, replicate 2), 0.267; with WT CXCR4 [4] (WT receptor, replicate 3), 0.275. In the test with WT CXCR4 [4] (WT receptor (Fig. 3a)), the “decrease in overall Gαi response” value was 18%.

As for KPVSLSLRCPCRFFESH-NH2 (cysteine pairing not given here) [CXCL12 Y7L variant peptide (17 N-terminal residues)], the Gαi efficacy (BRET) with the Y7L peptide, increase in test [5] came out at 30%. The molecule further showed an overall Gαi response (BRET) with the Y7L peptide, decrease in test [6] of 18%.

Turning to KPYSLSYRCPCRFFESH-NH2 (cysteine pairing not given here) [CXCL12 V3Y variant peptide (17 N-terminal residues)], in test [7], the efficacy of signaling, increase over the WT receptor-peptide pair was determined as 25% and the potency of signaling, fold over the WT receptor-peptide pair was greater than 80 fold.

KPVSLSYRCPCRFFESH-NH2 (cysteine pairing not given here) [wild-type peptide of the 17 N-terminal residues of CXCL12]: in [8], the Gαi response (BRET) against WT CXCL12 peptide, fold increase over WT CXCR4 is greater than 9 fold. In addition, in test [9], the potency in Gαi-coupling (BRET, HEK 293T cells, WT CXCL12 peptide), fold over WT CXCR4 was determined as 3.2 fold and the potency in calcium mobilization (HEK 293T cells, WT CXCL12 peptide), fold over WT CXCR4 worked out at 3.1 fold. In test [10], this molecule gave a Gαi efficacy (BRET, WT CXCL12 peptide), increase over the CXCR4 WT scaffold of 20% and a Gαi potency (BRET, WT CXCL12 peptide), fold over the CXCR4 WT scaffold of 11 fold.

As to KPYSLSLRCPCRFFESH-NH2 (cysteine pairing not given here) [CXCL12 V3Y-Y7L variant peptide (17 N-terminal residues)], in [11], the efficacy of signaling, increase was 34% and the potency of signaling, fold increase is greater than 100 fold.
